According to patent EP3495350B1, “COMPOUND INHIBITING FORMATION OF C-MYC/MAX/DNA COMPLEX” (National Cancer Center, priority 2016, dated 2018):

How the values were obtained:
zebrafish = assay: Cardiotoxicity experiment using zebrafish (heart rate, lethality); assay type: in vivo; details: n=10; for Changes in heart rate (%): mean
UM-UC-3 = assay: Cell based assay, cell viability (CellTiter-Glo), UM-UC-3; details: Homo sapiens, UMUC3; 72 hours, 0 to 2 µM; read-out: cell based assay cell line 4 UM-UC-3 IC50
Experimental: (§1) Commercially available bladder cancer cell lines were treated with trypsin-EDTA and seeded in each well of a 96 well plate, followed by incubation for 24 hours. After incubation, candidate compounds were added to each well at a final concentration of 0 to 2 µM. The compound-treated cells were further incubated for 72 hours. Cell viability was measured using an ATP detection method (CellTiter-Glo Luminescent Cell Viability Assay, Promega).
(§2) The selectivity of the compounds of the present disclosure to cancer cells was evaluated in the same manner as described in "2. Cell based assay".

[1] = Single toxicity test (IV and IP single dose); assay type: in vivo, Mouse; details: 40 mg/kg
253J = assay: Cell based assay, cell viability (CellTiter-Glo), 253J; details: Homo sapiens; 72 hours, 0 to 2 µM; read-out: cell based assay cell line 3 253J IC50
Experimental: as §1, §2

recombinant c-Myc/Max = assay: Protein assay: electrophoretic mobility shift assay (EMSA) of DNA binding of c-Myc/Max; assay type: biochemical
Experimental: Recombinant proteins were prepared as described in the following references: K. C. Jung et al., Fatty Acids, Inhibitors for the DNA Binding of c-Myc/Max Dimer, Suppress Proliferation and Induce Apoptosis of Differentiated HL-60 Human Leukemia Cell, Leukemia, 2006, 20(1), 122-7 or Kyung-Chae Jeong et al., Small-Molecule Inhibitors of c-Myc Transcriptional Factor Suppress Proliferation and Induce Apoptosis of Promyelocytic Leukemia Cell via Cell Cycle Arrest, Mol. BioSyst., 2010, 6, 1503-1509.
The inhibitory activity of each candidate compound on DNA binding of recombinant c-Myc/Max was measured using an electrophoretic mobility shift assay (EMSA). The ratio of protein-DNA complexes in each sample was evaluated by measuring band intensity. The oligonucleotides (E-box, 5'-biotin-[…]-3'-biotin) corresponding to the consensus binding site of Myc/Max were dimerized through an annealing process. The protein mixture was incubated at room temperature for 5 minutes, and a DMSO solution containing each candidate compound was added thereto. The mixture was further incubated for 5 minutes, and the biotinylated DNA was added. To achieve a state of equilibrium, the final mixture was incubated at room temperature for 10 minutes. […] Each band was visualized using HRP-conjugated streptavidin and an ECL solution, and band intensity was measured using image analysis software.

MBT-2 = assay: Cell based assay, cell viability (CellTiter-Glo), MBT-2; details: 72 hours, 0 to 2 µM; read-out: cell based assay cell line 1 MBT-2 IC50
Experimental: as §1, §2

[2] = Cell based assay, cell viability (CellTiter-Glo), RT4 (selectivity); details: human, rt4 cells; selectivity evaluation, Table 6; benign; read-out: Cytotoxicity (µM) RT4
Experimental: as §1, with “After incubation, candidate compounds were added to each well at a final concentration of 0 to 2 µM.” left out
as §2

KU19-19 = assay: Cell based assay, cell viability (CellTiter-Glo), KU19-19; details: Homo sapiens, KU-19-19; 72 hours, 0 to 2 µM; read-out: cell based assay cell line 2 KU19-19 IC50
Experimental: as §1, §2

| Structure (SMILES) | IC50 (UM-UC-3) | IC50 (253J) | IC50 (MBT-2) | IC50 (KU19-19) | further results |
| --- | --- | --- | --- | --- | --- |
| COc1ccc(CCN2CCC(Nc3nc4ccccc4n3Cc3ccc(F)cc3)CC2)cc1 [Astemizole, reference compound] |  |  |  |  | Changes in heart rate (%) (zebrafish; 10 µM): 46.2%; Lethality (zebrafish; 10 µM): 0/10 |
| CC(=O)c1c([S+]([O-])Cc2ccccc2)nc2c(Br)ccc(Cl)c2c1O (stereo not shown) [Compound 4, 3-acetyl-2-(benzylsulfinyl)-8-bromo-5-chloroquinolin-4(1H)-one] | 1330 nM | 1000 nM | 960 nM | 1050 nM | deaths ([1]; IV and IP single-dose administration of 40 mpk): no deaths; General symptoms (feed intake, drinking water intake) ([1]; mouse, in vivo): no abnormal symptoms; Weight changes ([1]; mouse, in vivo): no significant weight changes; Percentage ([1]; mouse, in vivo, ip): 0 (0/2); mortality ([1]; mouse, in vivo, ip): 0%; Percentage ([1]; mouse, in vivo, iv): 0 (0/2); mortality ([1]; mouse, in vivo, iv): 0%; Changes in heart rate (%) (zebrafish; 5 µM): 88.5%; Lethality (zebrafish; 5 µM): 1/10; IC50 (recombinant c-Myc/Max): < 1000 nM; CC50 at 72 h [2]: > 10 µM |
| CC(=O)c1c([S+]([O-])Cc2ccc([N+](=O)[O-])cc2)[nH]c2c(Br)ccc(Cl)c2c1=O (stereo not shown) [Compound 33, 3-acetyl-8-bromo-5-chloro-2-((4-nitrobenzyl)sulfinyl)quinolin-4(1H)-one] | 1110 nM | 1390 nM | 900 nM | 1420 nM | Changes in heart rate (%) (zebrafish; 5 µM): 97.3%; Lethality (zebrafish; 5 µM): 0/10; Note (heart rate inhibition) (zebrafish; 5 µM): No significant heart rate inhibition; CC50 at 72 h [2]: > 10 µM |
| CC(=O)c1c(S(=O)(=O)Cc2ccccc2)nc2c(Br)ccc(Cl)c2c1O [Compound 54, 1-(2-(benzylsulfonyl)-8-bromo-5-chloro-4-hydroxyquinolin-3-yl)ethan-1-one] | > 2000 nM | > 2000 nM | > 2000 nM | > 2000 nM | IC50 (recombinant c-Myc/Max): < 1000 nM |
| CC(=O)c1c([S+]([O-])Cc2ccc(C#N)s2)[nH]c2c(Br)ccc(Cl)c2c1=O (stereo not shown) [Compound 98, 5-(((3-acetyl-8-bromo-5-chloro-4-oxo-1,4-dihydroquinolin-2-yl)sulfinyl)methyl)thiophene-2-carbonitrile] | 1520 nM | 1380 nM | 840 nM | 1900 nM |  |
| CC(=O)c1c([S+]([O-])Cc2ccc(-n3cccn3)nc2)[nH]c2c(Br)ccc(Cl)c2c1=O (stereo not shown) [Compound 99, 2-(((6-(1H-pyrazol-1-yl)pyridin-3-yl)methyl)sulfinyl)-3-acetyl-8-bromo-5-chloroquinolin-4(1H)-one] | 770 nM | 800 nM | 470 nM | 1120 nM |  |
| CC(=O)c1c([S+]([O-])Cc2ccc(N)nc2)[nH]c2c(Br)ccc(Cl)c2c1=O (stereo not shown) [Compound 100, 3-acetyl-2-(((6-aminopyridin-3-yl)methyl)sulfinyl)-8-bromo-5-chloroquinolin-4(1H)-one] | > 2000 nM | > 2000 nM | > 2000 nM | > 2000 nM |  |
| O=C(c1c([S+]([O-])Cc2ccc(SC(F)(F)F)cc2)[nH]c2c(Br)ccc(Cl)c2c1=O)C1CC1 (stereo not shown) [Compound 101, 8-bromo-5-chloro-3-(cyclopropanecarbonyl)-2-((4-((trifluoromethyl)thio)benzyl)sulfinyl)quinolin-4(1H)-one] | 1930 nM | 1820 nM | > 2000 nM | > 2000 nM |  |
| CC(=O)c1c([S+]([O-])Cc2ccc(C(F)(F)F)nc2C)[nH]c2c(Br)ccc(Cl)c2c1=O (stereo not shown) [Compound 102, 3-acetyl-8-bromo-5-chloro-2-(((2-methyl-6-(trifluoromethyl)pyridin-3-yl)methyl)sulfinyl)quinolin-4(1H)-one] | 1070 nM | 830 nM | 770 nM | 1580 nM |  |
| CC(=O)c1c([S+]([O-])Cc2ccc(NS(C)(=O)=O)cc2)[nH]c2c(Br)ccc(Cl)c2c1=O (stereo not shown) [Compound 103, N-(4-(((3-acetyl-8-bromo-5-chloro-4-oxo-1,4-dihydroquinolin-2-yl)sulfinyl)methyl)phenyl)methanesulfonamide] | > 2000 nM | > 2000 nM | > 2000 nM | > 2000 nM |  |
| CC(=O)c1c([S+]([O-])Cc2ccc(Cl)nc2)[nH]c2c(Br)ccc(Cl)c2c1=O (stereo not shown) [Compound 104, 3-acetyl-8-bromo-5-chloro-2-(((6-chloropyridin-3-yl)methyl)sulfinyl)quinolin-4(1H)-one] | 1130 nM | 870 nM | 710 nM | 1500 nM |  |
| COCCNc1ccc(C[S+]([O-])c2[nH]c3c(Br)ccc(Cl)c3c(=O)c2C(C)=O)cn1 (stereo not shown) [Compound 105, 3-acetyl-8-bromo-5-chloro-2-(((6-((2-methoxyethyl)amino)pyridin-3-yl)methyl)sulfinyl)quinolin-4(1H)-one] | > 2000 nM | > 2000 nM | > 2000 nM | > 2000 nM |  |
| CC(=O)c1c([S+]([O-])Cc2nonc2C)[nH]c2c(Br)ccc(Cl)c2c1=O (stereo not shown) [Compound 106, 3-acetyl-8-bromo-5-chloro-2-(((4-methyl-1,2,5-oxadiazol-3-yl)methyl)sulfinyl)quinolin-4(1H)-one] | > 2000 nM | > 2000 nM | > 2000 nM | > 2000 nM |  |
| CC(=O)c1c([S+]([O-])Cc2cnc3[nH]ccc3c2)[nH]c2c(Br)ccc(Cl)c2c1=O (stereo not shown) [Compound 107, 2-(((1H-pyrrolo[2,3-b]pyridin-5-yl)methyl)sulfinyl)-3-acetyl-8-bromo-5-chloroquinolin-4(1H)-one] | > 2000 nM | > 2000 nM | > 2000 nM | > 2000 nM |  |
